Measured values reported in US8722014B2, “1 H-[1, 2, 3] triazole substituted amino acids and uses thereof” (Washington University, priority 2009, dated 2014).
“And” between values parts separate entries of the source, which are not always exact repeats. Identical values can stand only once. Like-named read-outs stand apart in the source and are kept apart here.

Experiments:
[1] = tested on: 9L gliosarcoma cells; experiment: Cell uptake assay in 9L gliosarcoma cells with amino acid transport inhibitors (cluster tray method); assay type: cell-based; settings: for percent uptake relative to control, Na ASC: L-Ala/L-Ser/L-Cys 3.3 mM each
Method: The 9L gliosarcoma tumor is an established model for human glioblastoma (brain tumor). Cell uptake assays were performed with 9L gliosarcoma cells using both (R)-[^18F]4 and (S)-[^18F]4. 9L gliosarcoma cells were cultured with Earle's minimal essential medium (MEM) augmented with 10% newborn calf serum, 1% 200 mM L-glutamine, 1% MEM vitamin solution and 1% 10 mM non-essential amino acids (NEAA). The cells were passaged every two to three days prior to use with no more than a total of 20 passages. Two to three days before the uptake assays, suspension of 2.5 or 5.0×10^4 cells in culture media were aliquoted into Costar 24 well plates to achieve log growth phase with approximately 70% confluency at the time of the uptake assay (approximately 10^5 cells per well).
Cell uptake assays were performed using the cluster tray method reported in Gazzola et al., Anal. Biochem. 115: 368-374, 1981. Two buffers were used for the assays, a phosphate buffered saline solution and a sodium-free phosphate buffered choline chloride solution. […] The choline buffer was the same as the sodium buffer except choline chloride was substituted for sodium chloride and choline phosphate dibasic was substituted for sodium phosphate dibasic. A 250 mM solution of choline phosphate dibasic was prepared by boiling 95.6 mL of 75% of choline bicarbonate (0.500 mol) and 16.9 mL of 85% aqueous phosphoric acid (0.247 mol) in 750 mL of water for 60 min. The solution was brought to a total volume of 1 liter with water and brought to pH 7.4 with concentrated aqueous hydrochloric acid. The pH of the sodium and choline buffer solutions was adjusted to 7.4 with concentrated aqueous hydrochloric acid prior to use.
A variety of inhibitor conditions were used to determine which amino acid transport system or systems were responsible for cellular uptake of (R)- and (S)-[^18F]-4. The N-methylated amino acid, methylaminoisobutyric acid (MeAIB), is a selective system A substrate and has been used extensively as a competitive inhibitor of system A transport (Shotwell, M. A., et al. Biochem. Biophys. Acta. 737: 267-284, 1983; Christensen, H. N., et al., J. Biol. Chem. 240: 3609-3616, 1965) The bulky neutral amino acid, 2-aminobicyclo-(2,2,1)-heptane-2-carboxylic acid (BCH), has been extensively used as a competitive inhibitor of system L transport, and under sodium-free conditions BCH is a selective system L inhibitor (Palacin, M., et al., Physiol. Rev. 78: 969-1054, 1998. In the presence of sodium, BCH is also an inhibitor of system B^0,+ which is a sodium-dependent amino acid transporter that typically is a minor transport systems in most tissues. A mixture of L-alanine (L-Ala), L-serine (L-Ser) and L-cysteine (L-Cys), (ASC), was used as a non-specific inhibitor condition, and this combination of amino acids is expected to inhibit a broad range of amino acid transport systems including system ASC. Because of the results of initial cell uptake assays described below and the structural relationship of the 1H-1,2,3-triazole group to the imidazole side chain of L-histidine (L-His), additional uptake assays using L-His as well as the basic side chain amino acids L-arginine (L-Arg) and L-lysine (L-Lys) individually and together (RKH) as competitive inhibitors were performed.
The following inhibitors were added to the appropriate sodium or choline buffer: N-methyl aminoisobutyric acid (MeAIB, 10 mM), a mixture of L-alanine/L-serine/L-cysteine (ASC, 3.3 mM of each amino acid), (R,S)-(endo,exo)-2-aminobicyclo(2,2,1)-heptane-2-carboxylic acid (BCH, 10 mM), L-arginine (Arg, 10 mM), L-lysine (Lys, 10 mM), L-histidine (His, 10 mM) and a mixture of Arg/Lys/H is (RKH, 3.3 mM of each amino acid). For control conditions, 10 mM of sucrose was added to maintain consistent osmolality relative to the inhibitor conditions. The pH of each solution of inhibitor in buffer was adjusted as necessary to 7.40 with 3 M aqueous hydrochloric acid prior to use in cell uptake assays. […]

[2] = tested on: subcutaneous 9L gliosarcoma tumors
Method: Biodistribution studies were performed with both enantiomers, (R)-[^18F]4 and (S)-[^18F]4, using Fischer 344 rats (Charles River Laboratories, Wilmington Mass., USA) implanted with subcutaneous 9L gliosarcoma tumors. The tumors were implanted by subcutaneous injection of a suspension of approximately 1×10^69L gliosarcoma cells into the flanks of the rats. The tumors were allowed to grow for 3 weeks prior to the study. The rats were allowed food and water ad libitum prior to the biodistribution study. Anesthesia was achieved using a mixture of 1% isoflurane in oxygen, and the radiolabeled amino acid (R)-[^18F]4 or (S)-[^18F]4 was injected intravenously through a tail vein. The animals were euthanized in groups of four for each enantiomer at 5, 30 or 60 minutes after injection. The organs and tissues of interest and the tumors were dissected and weighed, and the amounts of activity were measured and decay corrected to the time of injection with a gamma counter. Standards for the doses were also measured with a gamma counter, and the data were normalized as the percent of total dose per gram of tissue (% ID/g) for each sample. The data were analyzed using GraphPad Prism software with 1-way ANOVAs for each enantiomer at each time point with Bonferroni post-tests. The tumor and brain uptake of radioactivity was directly compared for both enantiomers at each time point with a 2-way ANOVA with Bonferroni post-test. p-values less than or equal to 0.05 were considered statistically significant.

Cl.N[C@H](Cc1cn(CC[18F])nn1)C(=O)O [(R)-[^18F]4, (R)-2-amino-3-[1-(2-fluoroethyl)-1H-[1,2,3]triazol-4-yl]propanoic acid hydrochloride salt-[^18F]]
inhibition of uptake by ASC condition relative to the sodium control ([1]; neutral amino acid inhibitor assay, p<0.001): 36% | uptake mediated by system L or cationic amino acid transport systems ([1]; same uptake assays with inhibitors): did not demonstrate significant uptake | inhibition of uptake by ASC condition relative to the sodium control ([1]; second independent assay, p<0.01): 33% | percent uptake relative to control, Na RKH ([1]; sodium buffer, Arg/Lys/His 3.3 mM each (FIG. 4/6)): 82±4% | percent uptake relative to control, Na BCH ([1]; sodium buffer, BCH 10 mM, 30 sec uptake, neutral amino acid inhibitor assay (FIG. 3/5)): 110±11% | percent uptake relative to control, Na ASC ([1]; sodium buffer, 30 sec uptake, neutral amino acid inhibitor assay (FIG. 3/5)): 64±6% | percent uptake relative to control, Na ASC ([1]; sodium buffer, basic side chain amino acid inhibitor assay (FIG. 4/6)): 67±15% | percent uptake relative to control, Na Arg ([1]; sodium buffer, L-arginine 10 mM (FIG. 4/6)): 83±7% | percent uptake relative to control, Na His ([1]; sodium buffer, L-histidine 10 mM (FIG. 4/6)): 91±10% | percent uptake relative to control, Na Lys ([1]; sodium buffer, L-lysine 10 mM (FIG. 4/6)): 104±8% | percent uptake relative to control, Na MeAIB ([1]; sodium buffer, MeAIB 10 mM, 30 sec uptake, neutral amino acid inhibitor assay (FIG. 3/5)): 97±7% | percent uptake relative to control, Cho BCH ([1]; sodium-free choline buffer, BCH 10 mM, relative to sodium control (FIG. 3/5)): 95±4% | percent uptake relative to control, Cho sucrose ([1]; sodium-free choline buffer, sucrose 10 mM, relative to sodium control (FIG. 3/5)): 107±14% | biodistribution: blood ([2]; 5 min after i.v. injection): 0.90 ± 0.166 % ID/g | biodistribution: bone ([2]; 5 min after i.v. injection): 0.32 ± 0.083 % ID/g | biodistribution: brain ([2]; 5 min after i.v. injection): 0.09 ± 0.015 % ID/g | biodistribution: fat ([2]; 5 min after i.v. injection): 0.10 ± 0.044 % ID/g | biodistribution: heart ([2]; 5 min after i.v. injection): 0.42 ± 0.076 % ID/g | biodistribution: kidney ([2]; 5 min after i.v. injection): 14.01 ± 3.826 % ID/g | biodistribution: large intestine ([2]; 5 min after i.v. injection): 0.15 ± 0.043 % ID/g | biodistribution: liver ([2]; 5 min after i.v. injection): 0.54 ± 0.153 % ID/g | biodistribution: lung ([2]; 5 min after i.v. injection): 0.74 ± 0.143 % ID/g | biodistribution: muscle ([2]; 5 min after i.v. injection): 0.18 ± 0.049 % ID/g | biodistribution: pancreas ([2]; 5 min after i.v. injection): 0.53 ± 0.126 % ID/g | biodistribution: salivary gland ([2]; 5 min after i.v. injection): 0.46 ± 0.083 % ID/g | biodistribution: small intestine ([2]; 5 min after i.v. injection): 0.32 ± 0.079 % ID/g | biodistribution: spleen ([2]; 5 min after i.v. injection): 0.33 ± 0.065 % ID/g | biodistribution: testes ([2]; 5 min after i.v. injection): 0.18 ± 0.042 % ID/g | biodistribution: thyroid ([2]; 5 min after i.v. injection): 0.64 ± 0.092% of total dose per organ | biodistribution: tumor ([2]; 5 min after i.v. injection): 0.27 ± 0.042 % ID/g | tumor:brain ratio ([2]; 5 min after i.v. injection): 3.2 | biodistribution: blood ([2]; 30 min after i.v. injection): 0.28 ± 0.037 % ID/g | biodistribution: bone ([2]; 30 min after i.v. injection): 0.13 ± 0.027 % ID/g | biodistribution: brain ([2]; 30 min after i.v. injection): 0.04 ± 0.005 % ID/g | biodistribution: fat ([2]; 30 min after i.v. injection): 0.03 ± 0.012 % ID/g | biodistribution: heart ([2]; 30 min after i.v. injection): 0.13 ± 0.014 % ID/g | biodistribution: kidney ([2]; 30 min after i.v. injection): 6.76 ± 0.830 % ID/g | biodistribution: large intestine ([2]; 30 min after i.v. injection): 0.08 ± 0.060 % ID/g | biodistribution: liver ([2]; 30 min after i.v. injection): 0.58 ± 0.074 % ID/g | biodistribution: lung ([2]; 30 min after i.v. injection): 0.54 ± 0.211 % ID/g | biodistribution: muscle ([2]; 30 min after i.v. injection): 0.08 ± 0.020 % ID/g | biodistribution: pancreas ([2]; 30 min after i.v. injection): 0.50 ± 0.105 % ID/g | biodistribution: salivary gland ([2]; 30 min after i.v. injection): 0.20 ± 0.016 % ID/g | biodistribution: small intestine ([2]; 30 min after i.v. injection): 0.30 ± 0.154 % ID/g | biodistribution: spleen ([2]; 30 min after i.v. injection): 0.18 ± 0.004 % ID/g | biodistribution: testes ([2]; 30 min after i.v. injection): 0.08 ± 0.011 % ID/g | biodistribution: thyroid ([2]; 30 min after i.v. injection): 0.21 ± 0.023% of total dose per organ | biodistribution: tumor ([2]; 30 min after i.v. injection): 0.29 % ID/g and 0.29 ± 0.132 % ID/g | tumor:brain ratio ([2]; 30 min after i.v. injection): 8.8 | biodistribution: blood ([2]; 60 min after i.v. injection): 0.14 ± 0.015 % ID/g | biodistribution: bone ([2]; 60 min after i.v. injection): 0.08 ± 0.007 % ID/g | biodistribution: brain ([2]; 60 min after i.v. injection): 0.02 ± 0.001 % ID/g | biodistribution: fat ([2]; 60 min after i.v. injection): 0.02 ± 0.002 % ID/g | biodistribution: heart ([2]; 60 min after i.v. injection): 0.08 ± 0.006 % ID/g | biodistribution: kidney ([2]; 60 min after i.v. injection): 2.39 ± 0.138 % ID/g | biodistribution: large intestine ([2]; 60 min after i.v. injection): 0.05 ± 0.002 % ID/g | biodistribution: liver ([2]; 60 min after i.v. injection): 0.48 ± 0.023 % ID/g | biodistribution: lung ([2]; 60 min after i.v. injection): 0.37 ± 0.100 % ID/g | biodistribution: muscle ([2]; 60 min after i.v. injection): 0.05 ± 0.006 % ID/g | biodistribution: pancreas ([2]; 60 min after i.v. injection): 0.43 ± 0.063 % ID/g | biodistribution: salivary gland ([2]; 60 min after i.v. injection): 0.15 ± 0.009 % ID/g | biodistribution: small intestine ([2]; 60 min after i.v. injection): 0.35 ± 0.015 % ID/g | biodistribution: spleen ([2]; 60 min after i.v. injection): 0.14 ± 0.002 % ID/g | biodistribution: testes ([2]; 60 min after i.v. injection): 0.05 ± 0.002 % ID/g | biodistribution: thyroid ([2]; 60 min after i.v. injection): 0.12 ± 0.010% of total dose per organ | biodistribution: tumor ([2]; 60 min after i.v. injection): 0.17 ± 0.009 % ID/g | tumor:brain ratio ([2]; 60 min after i.v. injection): 6.9
